For nine compounds, MIC, IC50 and zone of inhibition results are on record in patent US5091522A, “Retinoic esters of D-desosamine, process for their preparation and their use in human or veterinary medicine and in cosmetic compositions” (L'Oreal, priority 1989, dated 1992).

Type in all cases: cell-based
Assay [1] has as its system Propionibacterium acnes P37 E⊕. Description: Minimum inhibiting concentration (MIC) by dilution method, P. acnes P37 E⊕ (erythromycin-sensitive population). The note with it: Cutibacterium acnes. The source says:
(§1) The activity of retinoic esters of D-desosamines has been studied by the dilution method to determine the minimum inhibiting concentration (MIC). This method is described and employed by G. A. Denys et al, Antimicrobial Agents and Chemotherapy (1983) 23, 335-337 and J. J. Leyden et al, J.Am.Acad. Dermatol. (1983) 8 (1) 41-5, by using as the Propionibacterium acnes strain, strain P37 furnished by Cunliffe and Holland.
(§2) On the other hand, after 8 successive sub-cultures in the same medium (RCM* 19/20, DMSO 1/20 by volume) with the view of obtaining a progressive stabilization of this strain in this medium, a progressive resistance to erythromycin was manifested in the following form:
(§3) after spreading a standardized inoculum (DO=1.8 at 450 nm) on a gelose medium (RCM+furazolidone), in a Petri dish, a 9 mm diameter disc is deposited at its center. On the disc, 50 μg of erythromycin (in solution in DMSO) are deposited.
(§4) The two types of colonies are then retained by stripping of the gelose medium (sterilized platinum loop):
(2) at 1 cm beyond the periphery of the inhibition zone, there are stripped off strains called P37 E⊕.
(§5) After isolation and culturing, the P37 E⊕ and P37 E⊖ strains effectively show very different sensitivities to erythromycin as illustrated by the following MIC values:
(§6) The minimum concentration (MIC), expressed in μg/ml of the retinoic esters of D-desosamine tested vis-a-vis strains of Propionibacterium acnes P37, P37 E⊕ and P37 E⊖ and staphilococcus epidermis ATCC 12228, is reported in the following table: […]

Assay [2] has as its system staphilococcus epidermis ATCC 12228. Put plainly: Minimum inhibiting concentration (MIC) by dilution method, staphilococcus epidermis ATCC 12228. The note with it: read-out: minimum concentration (MIC), TABLE I.
From the text: as §1, §6

The test system of assay [3] is Propionibacterium acnes P37. Description: Minimum inhibiting concentration (MIC) by dilution method, P. acnes strain P37.
From the text: as §1, §6

The test system of assay [4] is Propionibacterium acnes P37 E⊖. Put plainly: Minimum inhibiting concentration (MIC) by dilution method, P. acnes P37 E⊖ (erythromycin-resistant population). The following applies: Cutibacterium acnes, P37E.CRCLBAR.
From the text: as §1, §2, §3, §4
(1) at the interior of the inhibition zone there are stripped off strains, called P37 E⊖ by reason of their apparent resistance to erythromycin.
as §5, §6

Assay [5] relates to Propionibacterium acnes P37. Put plainly: IC 50 (50% survivors among the population at constant culturing time), P37. The note with it: Cutibacterium acnes, P37, read-out: IC 50 (inhibiting concentration at 50%). The text has this:
(§7) This phenomenon is confirmed by the study of the IC 50 (inhibiting concentration at 50% which represents the concentration of erythromycin where, at a constant culturing time, 50% survivors among the population are found

Assay [6] concerns Propionibacterium acnes P37 E⊖. Description: IC 50 (50% survivors among the population at constant culturing time), P37 E⊖. The following applies: Cutibacterium acnes, P37E.CRCLBAR., read-out: IC 50 (inhibiting concentration at 50%).
From the text: as §7

Assay [7] relates to Propionibacterium acnes P37 E⊕. Put plainly: IC 50 (50% survivors among the population at constant culturing time), P37 E⊕. The note with it: Cutibacterium acnes, read-out: IC 50 (inhibiting concentration at 50%).
From the text: as §7

The test system of assay [8] is Propionibacterium acnes strain P37. Description: Disc inhibition zone on gelose medium. The note with it: Cutibacterium acnes, P37, 144 h; 50 μg erythromycin on 9 mm disc; 6 days at 36 C, anaerobic; RCM+furazolidone; after 8 sub-cultures; read-out: inhibition zone of the growth of the strain (total diameter). As for the experimental part:
as §2, §3
After 6 days at 36.C in an anaerobic medium (GAS-PAK, B.B.L. system) an inhibition zone of the growth of the strain is clearly visible (total diameter =42 mm), the majority of the colonies being situated at the periphery of the inhibition zone.

[9] abbreviates: P37E.SYM., P37 E⊕, read-out: minimum concentration (MIC), TABLE I.
Setting [10] is: Cutibacterium acnes, P37, read-out: minimum concentration (MIC), TABLE I.
[11] abbreviates: read-out: minimum concentration (MIC), TABLE I.
[12] abbreviates: Cutibacterium acnes, P37; read-out: minimum concentration (MIC), TABLE I.

≈ marks a conversion by molar mass, not a printed value. Where two headings read alike, the source gives them in different places.

In the case of `CCCCOC1O[C@H](C)C[C@H](N(C)C)[C@H]1OC(=O)\C=C(C)/C=C/C=C(C)/C=C/C1=C(C)CCCC1(C)C` (stereo partly drawn) [Compound 1, O-retinoyl (13 cis)-2-O-butyl-1-α,β-D-desosamine], the MIC in assay [1] (setting [9]) was found to be 21 µg/mL (≈ 40.9 µM); in assay [2] (ATCC 12228), 18.5 µg/mL (≈ 36 µM); in assay [3] (setting [10]), 10.5 µg/mL (≈ 20.4 µM); in assay [4] (setting [11]), 10.5 µg/mL (≈ 20.4 µM).

As to `CCCCOC1O[C@H](C)C[C@H](N(C)C)[C@H]1OC(=O)/C=C(C)/C=C/C=C(C)/C=C/C1=C(C)CCCC1(C)C` (stereo partly drawn) [Compound 2, O-retinoyl (all trans)-2-O-butyl-1-α-β-D-desosamine], the MIC in assay [1] (setting [9]) worked out at 25 µg/mL (≈ 48.7 µM); in assay [2] (ATCC 12228) it was 3.5 µg/mL (≈ 6.81 µM); in assay [3] (setting [12]) it was 15 µg/mL (≈ 29.2 µM); in assay [4] (setting [11]), 9 µg/mL (≈ 17.5 µM).

Turning to `CCCCOC1O[C@H](C)C[C@H](N(C)C)[C@H]1OC(=O)/C=C(C)/C=C/C=C(C)/C=C/c1c(C)cc(OC)c(C)c1C` (stereo partly drawn) [Compound 5, O-etretinoyl (all trans)-2-O-butyl-1-α,β-D-desosamine], the MIC in assay [1] (setting [9]) was 6 µg/mL (≈ 11.1 µM); in assay [2] (ATCC 12228) it was 6 µg/mL (≈ 11.1 µM); in assay [3] (setting [12]) it was 3 µg/mL (≈ 5.56 µM); in assay [4] (setting [11]), 6 µg/mL (≈ 11.1 µM).

In the case of `CCCCO[C@H]1O[C@H](C)C[C@H](N(C)C)[C@H]1OC(=O)/C=C(C)/C=C/C=C(C)/C=C/c1c(C)cc(OC)c(C)c1C` [Compound 6, O-etretinoyl (all trans)-2-O-butyl-1-α-D-desosamine], the MIC in assay [1] (setting [9]) was determined as 4.3 µg/mL (≈ 7.97 µM); in assay [2] (ATCC 12228) it was 1.5 µg/mL (≈ 2.78 µM); in assay [3] (setting [12]), 19 µg/mL (≈ 35.2 µM); in assay [4] (setting [11]), 2.1 µg/mL (≈ 3.89 µM).

Take `CCCCO[C@@H]1O[C@H](C)C[C@H](N(C)C)[C@H]1OC(=O)/C=C(C)/C=C/C=C(C)/C=C/c1c(C)cc(OC)c(C)c1C` [Compound 7, O-etretinoyl (all trans)-2-O-butyl-1-β-D-desosamine]: the MIC in assay [1] (setting [9]) was determined as 40 µg/mL (≈ 74.1 µM); in assay [2] (ATCC 12228), 2.3 µg/mL (≈ 4.26 µM); in assay [3] (setting [12]) it was 5.2 µg/mL (≈ 9.63 µM); in assay [4] (setting [11]) it was 14.5 µg/mL (≈ 26.9 µM).

As for `CCCCOC1O[C@H](C)C[C@H](N(C)C)[C@H]1O` (stereo partly drawn) [O-butyl-1-α,β-D-desosamine, reference compound], the MIC in assay [1] (setting [9]) is more than 100 µg/mL; in assay [2] (ATCC 12228), more than 100 µg/mL; in assay [3] (setting [12]) it was more than 100 µg/mL; in assay [4] (setting [11]), more than 110 µg/mL.

In the case of `CO[C@H]1O[C@H](COC(=O)\C=C(C)/C=C/C=C(C)/C=C/C2=C(C)CCCC2(C)C)[C@@H](O)[C@H](O)[C@H]1O` [O-retinoyl (13 cis)-6-O-methyl-1-α-D-glucopyrannose, reference compound], the MIC in assay [1] (setting [9]), in assay [2] (ATCC 12228), in assay [3] (setting [12]) and in assay [4] (setting [11]) was more than 45 µg/mL in each case.

The term zone of inhibition denotes the extent of the growth-free halo in a diffusion test. In the case of `CC[C@H]1OC(=O)[C@H](C)[C@@H](O[C@H]2C[C@@](C)(OC)[C@@H](O)[C@H](C)O2)[C@H](C)[C@@H](O[C@@H]2O[C@H](C)C[C@H](N(C)C)[C@H]2O)[C@](C)(O)C[C@@H](C)C(=O)[C@H](C)[C@@H](O)[C@]1(C)O` [erythromycin], the IC50 in assay [5] came out at 50 µg/mL (≈ 68.1 µM); in assay [6], 100 µg/mL (≈ 136 µM); in assay [7] it was 5 µg/mL (≈ 6.81 µM). The MIC is 0.78 µg/mL (≈ 1.06 µM) in assay [1]; 0.78 µg/mL (≈ 1.06 µM) in assay [3] (Cutibacterium acnes, P37); 50 µg/mL (≈ 68.1 µM) in assay [4]. In assay [8], the zone of inhibition at 50 µg/disc worked out at 42 mm.

As for `C[C@@H]1C[C@H](N(C)C)[C@@H](O)C(O)O1` (stereo partly drawn) [α,β-D-desosamine, reference compound], the MIC in assay [1] (setting [11]) is more than 70 µg/mL; in assay [2], more than 50 µg/mL; in assay [3] (setting [10]), more than 50 µg/mL; in assay [4] (setting [11]), more than 70 µg/mL.
